# Experiment: The drug is tested on Providencia stuartii strain: ATCC25827 for biotransformation. The drug concentrations were measured before and after a 12-h incubation by liquid-chromatography-coupled mass spectrometry (LC–MS)
# Settings: 2 µM
row,Compound,Bacterial Biotransformation
1,CCN(CC)CCOC(=O)C(Cc1cccc2ccccc12)CC1CCCO1.O=C(O)C(=O)O (stereo unspecified) [NAFRONYL OXALATE],Compound NOT metabolized
2,CCc1nn(CCCN2CCN(c3cccc(Cl)c3)CC2)c(=O)n1CCOc1ccccc1 [NEFAZODONE],Compound NOT metabolized

# Experiment: The drug is tested on Bifidobacterium longum subsp. Infantis strain: CCUG52486 for biotransformation. The drug concentrations were measured before and after a 12-h incubation by liquid-chromatography-coupled mass spectrometry (LC–MS)
# Settings: 2 µM
row,Compound,Bacterial Biotransformation
1,CCN(CC)CCOC(=O)C(Cc1cccc2ccccc12)CC1CCCO1.O=C(O)C(=O)O (stereo unspecified) [NAFRONYL OXALATE],Compound NOT metabolized
2,CCc1nn(CCCN2CCN(c3cccc(Cl)c3)CC2)c(=O)n1CCOc1ccccc1 [NEFAZODONE],Compound NOT metabolized

# Experiment: The drug is tested on Anaerotruncus colihominis strain: DSM17241 for biotransformation. The drug concentrations were measured before and after a 12-h incubation by liquid-chromatography-coupled mass spectrometry (LC–MS)
# Settings: 2 µM
row,Compound,Bacterial Biotransformation
1,CCN(CC)CCOC(=O)C(Cc1cccc2ccccc12)CC1CCCO1.O=C(O)C(=O)O (stereo unspecified) [NAFRONYL OXALATE],Compound NOT metabolized
2,CCc1nn(CCCN2CCN(c3cccc(Cl)c3)CC2)c(=O)n1CCOc1ccccc1 [NEFAZODONE],Compound NOT metabolized

# Experiment: The drug is tested on Bacteroides xylanisolvens strain: DSM18836 for biotransformation. The drug concentrations were measured before and after a 12-h incubation by liquid-chromatography-coupled mass spectrometry (LC–MS)
# Settings: 2 µM
row,Compound,Bacterial Biotransformation
1,CCN(CC)CCOC(=O)C(Cc1cccc2ccccc12)CC1CCCO1.O=C(O)C(=O)O (stereo unspecified) [NAFRONYL OXALATE],Compound NOT metabolized
2,CCc1nn(CCCN2CCN(c3cccc(Cl)c3)CC2)c(=O)n1CCOc1ccccc1 [NEFAZODONE],Compound NOT metabolized

# Experiment: The drug is tested on Ruminococcus gnavus strain: ATCC29149 for biotransformation. The drug concentrations were measured before and after a 12-h incubation by liquid-chromatography-coupled mass spectrometry (LC–MS)
# Settings: mediterraneibacter gnavus, 2 µM
row,Compound,Bacterial Biotransformation
1,CCN(CC)CCOC(=O)C(Cc1cccc2ccccc12)CC1CCCO1.O=C(O)C(=O)O (stereo unspecified) [NAFRONYL OXALATE],Compound NOT metabolized
2,CCc1nn(CCCN2CCN(c3cccc(Cl)c3)CC2)c(=O)n1CCOc1ccccc1 [NEFAZODONE],Compound NOT metabolized

# Settings: akkermansia muciniphila, 12 h, 2 µM
# Description: The drug is tested on Akkermansia muciniphila strain: ATCC BAA-835 for biotransformation. The drug concentrations were measured before and after a 12-h incubation by liquid-chromatography-coupled mass spectrometry (LC–MS)
row,Compound,Bacterial Biotransformation
1,CCN(CC)CCOC(=O)C(Cc1cccc2ccccc12)CC1CCCO1.O=C(O)C(=O)O (stereo unspecified) [NAFRONYL OXALATE],Compound NOT metabolized
2,CCc1nn(CCCN2CCN(c3cccc(Cl)c3)CC2)c(=O)n1CCOc1ccccc1 [NEFAZODONE],Compound NOT metabolized

# Experiment: The drug is tested on Eubacterium hallii strain: DSM3353 for biotransformation. The drug concentrations were measured before and after a 12-h incubation by liquid-chromatography-coupled mass spectrometry (LC–MS)
# Settings: anaerobutyricum hallii, 2 µM
row,Compound,Bacterial Biotransformation
1,CCN(CC)CCOC(=O)C(Cc1cccc2ccccc12)CC1CCCO1.O=C(O)C(=O)O (stereo unspecified) [NAFRONYL OXALATE],Compound NOT metabolized

# Experiment: The drug is tested on Bifidobacterium ruminantium strain: fecal isolate for biotransformation. The drug concentrations were measured before and after a 12-h incubation by liquid-chromatography-coupled mass spectrometry (LC–MS)
# Settings: 2 µM
row,Compound,Bacterial Biotransformation
1,CCN(CC)CCOC(=O)C(Cc1cccc2ccccc12)CC1CCCO1.O=C(O)C(=O)O (stereo unspecified) [NAFRONYL OXALATE],Compound metabolized
2,CCc1nn(CCCN2CCN(c3cccc(Cl)c3)CC2)c(=O)n1CCOc1ccccc1 [NEFAZODONE],Compound NOT metabolized

# Experiment: The drug is tested on Clostridium ramosum strain: DSM1402 for biotransformation. The drug concentrations were measured before and after a 12-h incubation by liquid-chromatography-coupled mass spectrometry (LC–MS)
# Settings: thomasclavelia ramosa, 2 µM
row,Compound,Bacterial Biotransformation
1,CCN(CC)CCOC(=O)C(Cc1cccc2ccccc12)CC1CCCO1.O=C(O)C(=O)O (stereo unspecified) [NAFRONYL OXALATE],Compound NOT metabolized
2,CCc1nn(CCCN2CCN(c3cccc(Cl)c3)CC2)c(=O)n1CCOc1ccccc1 [NEFAZODONE],Compound NOT metabolized

# Experiment: The drug is tested on Bacteroides fragilis strain: HMW615 for biotransformation. The drug concentrations were measured before and after a 12-h incubation by liquid-chromatography-coupled mass spectrometry (LC–MS)
# Settings: 2 µM
row,Compound,Bacterial Biotransformation
1,CCN(CC)CCOC(=O)C(Cc1cccc2ccccc12)CC1CCCO1.O=C(O)C(=O)O (stereo unspecified) [NAFRONYL OXALATE],Compound NOT metabolized
2,CCc1nn(CCCN2CCN(c3cccc(Cl)c3)CC2)c(=O)n1CCOc1ccccc1 [NEFAZODONE],Compound NOT metabolized

# Experiment: The drug is tested on Bacteroides finegoldii strain: DSM17565 for biotransformation. The drug concentrations were measured before and after a 12-h incubation by liquid-chromatography-coupled mass spectrometry (LC–MS)
# Settings: 2 µM
row,Compound,Bacterial Biotransformation
1,CCN(CC)CCOC(=O)C(Cc1cccc2ccccc12)CC1CCCO1.O=C(O)C(=O)O (stereo unspecified) [NAFRONYL OXALATE],Compound NOT metabolized

# Experiment: The drug is tested on Eubacterium ventriosum strain: ATCC27560 for biotransformation. The drug concentrations were measured before and after a 12-h incubation by liquid-chromatography-coupled mass spectrometry (LC–MS)
# Assay type: ADME
# Set-up: dose 2 uM, timepoint 0 vs 12 hours
# Settings: 2 µM
row,Compound,Bacterial Biotransformation
1,CCN(CC)CCOC(=O)C(Cc1cccc2ccccc12)CC1CCCO1.O=C(O)C(=O)O (stereo unspecified) [NAFRONYL OXALATE],Compound NOT metabolized
2,CCc1nn(CCCN2CCN(c3cccc(Cl)c3)CC2)c(=O)n1CCOc1ccccc1 [NEFAZODONE],Compound NOT metabolized

# Settings: limosilactobacillus reuteri cf48-3a, 12 h, 2 µM
# Description: The drug is tested on Lactobacillus reuteri CF48-3A strain: BEI HM-102 for biotransformation. The drug concentrations were measured before and after a 12-h incubation by liquid-chromatography-coupled mass spectrometry (LC–MS)
row,Compound,Bacterial Biotransformation
1,CCN(CC)CCOC(=O)C(Cc1cccc2ccccc12)CC1CCCO1.O=C(O)C(=O)O (stereo unspecified) [NAFRONYL OXALATE],Compound NOT metabolized
2,CCc1nn(CCCN2CCN(c3cccc(Cl)c3)CC2)c(=O)n1CCOc1ccccc1 [NEFAZODONE],Compound NOT metabolized

# Experiment: The drug is tested on Collinsella aerofaciens strain: ATCC25986 for biotransformation. The drug concentrations were measured before and after a 12-h incubation by liquid-chromatography-coupled mass spectrometry (LC–MS)
# Settings: 2 µM
row,Compound,Bacterial Biotransformation
1,CCN(CC)CCOC(=O)C(Cc1cccc2ccccc12)CC1CCCO1.O=C(O)C(=O)O (stereo unspecified) [NAFRONYL OXALATE],Compound NOT metabolized
2,CCc1nn(CCCN2CCN(c3cccc(Cl)c3)CC2)c(=O)n1CCOc1ccccc1 [NEFAZODONE],Compound NOT metabolized

# Settings: roseburia intestinalis, 12 h, 2 µM
# Description: The drug is tested on Roseburia intestinalis strain: L1-82 for biotransformation. The drug concentrations were measured before and after a 12-h incubation by liquid-chromatography-coupled mass spectrometry (LC–MS)
row,Compound,Bacterial Biotransformation
1,CCN(CC)CCOC(=O)C(Cc1cccc2ccccc12)CC1CCCO1.O=C(O)C(=O)O (stereo unspecified) [NAFRONYL OXALATE],Compound NOT metabolized
2,CCc1nn(CCCN2CCN(c3cccc(Cl)c3)CC2)c(=O)n1CCOc1ccccc1 [NEFAZODONE],Compound NOT metabolized

# Settings: bacteroides intestinalis, 12 h, 2 µM
# Description: The drug is tested on Bacteroides intestinalis strain: DSM17393 for biotransformation. The drug concentrations were measured before and after a 12-h incubation by liquid-chromatography-coupled mass spectrometry (LC–MS)
row,Compound,Bacterial Biotransformation
1,CCN(CC)CCOC(=O)C(Cc1cccc2ccccc12)CC1CCCO1.O=C(O)C(=O)O (stereo unspecified) [NAFRONYL OXALATE],Compound NOT metabolized
2,CCc1nn(CCCN2CCN(c3cccc(Cl)c3)CC2)c(=O)n1CCOc1ccccc1 [NEFAZODONE],Compound NOT metabolized

# Settings: bacteroides thetaiotaomicron, 12 h, 2 µM
# Description: The drug is tested on Bacteroides thetaiotaomicron strain: 3731 for biotransformation. The drug concentrations were measured before and after a 12-h incubation by liquid-chromatography-coupled mass spectrometry (LC–MS)
row,Compound,Bacterial Biotransformation
1,CCN(CC)CCOC(=O)C(Cc1cccc2ccccc12)CC1CCCO1.O=C(O)C(=O)O (stereo unspecified) [NAFRONYL OXALATE],Compound NOT metabolized
2,CCc1nn(CCCN2CCN(c3cccc(Cl)c3)CC2)c(=O)n1CCOc1ccccc1 [NEFAZODONE],Compound NOT metabolized

# Settings: bacteroides fragilis, 12 h, 2 µM
# Description: The drug is tested on Bacteroides fragilis strain: NCTC 9343 for biotransformation. The drug concentrations were measured before and after a 12-h incubation by liquid-chromatography-coupled mass spectrometry (LC–MS)
row,Compound,Bacterial Biotransformation
1,CCN(CC)CCOC(=O)C(Cc1cccc2ccccc12)CC1CCCO1.O=C(O)C(=O)O (stereo unspecified) [NAFRONYL OXALATE],Compound metabolized
2,CCc1nn(CCCN2CCN(c3cccc(Cl)c3)CC2)c(=O)n1CCOc1ccccc1 [NEFAZODONE],Compound NOT metabolized

# Experiment: The drug is tested on Bacteroides sp. WH2 strain: WH2 for biotransformation. The drug concentrations were measured before and after a 12-h incubation by liquid-chromatography-coupled mass spectrometry (LC–MS)
# Settings: bacteroides sp. wh2, 12 h, 2 µM
row,Compound,Bacterial Biotransformation
1,CCN(CC)CCOC(=O)C(Cc1cccc2ccccc12)CC1CCCO1.O=C(O)C(=O)O (stereo unspecified) [NAFRONYL OXALATE],Compound NOT metabolized
2,CCc1nn(CCCN2CCN(c3cccc(Cl)c3)CC2)c(=O)n1CCOc1ccccc1 [NEFAZODONE],Compound NOT metabolized

# — ChEMBL document CHEMBL5303573, “Mapping human microbiome drug metabolism by gut bacteria and their genes” (Nature, 2019)
